Assay results taken from patent US20070149580A1, “USE OF PEROXISOME PROLIFERATOR ACTIVATED RECEPTOR DELTA AGONISTS FOR THE TREATMENT OF MS AND OTHER DEMYELINATING DISEASES” (AVENTIS PHARMACEUTICALS INC., priority 2004, published 2007).

Tests used:
human RXR receptor = experiment: Cellular human RXR receptor luciferase reporter assay; format: cell-based; details: Retinoid X receptor
Protocol: Determination of EC50 Values in the Cellular Human RXR Receptor Assay
Cell Based RXR Assay Protocol
To perform cell based assays a luciferase assay is performed in 96 well plates as follows: […]
• Aspirate medium from cells • Freeze plates at −20° C. (optional) • Thaw plates for 30 min (if necessary) • Add 50 μl Bright-Glo-Luciferase Assay Reagent (Promega, Cat. No. E2650) • Incubate for 10 min in the dark • Measure luminescence 2 sec per well (Wallac Microbeta) Data Analysis […]

[1] = tested on: mixed cultures of human oligodendrocytes; experiment: Human oligodendrocyte differentiation assay (O4 immunopositive cell count); format: cell-based; details: FIGS. 5 and 6
Protocol: • 1. Human neurospheres collected from E19.5-[…] human embryo cortex) are cultured for 2 weeks in progenitor media: […] Neurospheres are dissociated with 20 U/ml papain at 37° C. for 30-50 min. • 3. Cells are plated onto PDL coated dishes at density of 50,000-100,000 cell/well in progenitor media containing PDGF/FGF and incubated at 37° C. with 5-6% CO2. • 4. Media and growth factors are replenished every 48 hr. Human Culture Compound Treatment: • 1. 24 to 48 hr after plating remove the old medium and add compounds in fresh medium (with mitogen) • 2. Compound dose response evaluations are performed at 3-6 different concentrations (10 µM, 1 µM, 100 nM, 10 nM, 1 nM, and 0.1 nM) • 3. […] Sequential staining is performed on oligodendrocyte populations with increasing degrees of cellular differentiation, as determined by days in vitro without PDGF and FGF. • 2. […] Colormetric visualization of the BrdU immunoreactivity is developed with DAB and total cell numbers are assessed using the counter-stain hematoxylin. • 4. BrdU immunopositive cells are counted by two independent observers. Rat/Mouse/Human Culture Image Analysis: Fluorescent microscopy is used to quantitate the extent of oligodendrocyte differentiation after compound exposure. […] Manual Cell Counting: Four fields are randomly selected for each experimental condition and 500-600 cells are counted in each field. […]

Row | SMILES | Human PPAR RXR EC50 (human RXR receptor) | number of O4 immunopositive cells [1]
1 | Cc1cc(SCc2sc(-c3ccc(C(F)(F)F)cc3)nc2C)ccc1OCC(=O)O [Compound 1] | No increase | increase
2 | CCCc1c(OCCCOc2ccc(OCC(=O)O)cc2)ccc(C(C)=O)c1O [Compound 2] | No increase | increase
